Test results: US20080132564A1, “MICELLAR DRUG DELIVERY VEHICLES AND PRECURSORS THERETO AND USES THEREOF” (ANGIOTECH INTERNATIONAL AG, priority 2001, published 2008)

How the values were obtained:
[1] = Recovery of paclitaxel added to polymer mixtures after heating (reverse phase HPLC, UV detection); type: physicochemical
Protocol: The desirability of removing unreacted starting materials and/or acidic reaction by-products can be seen by reference to the data in Table 1. […] According to the data, when paclitaxel is combined with a diblock copolymer having up to 2% residual monomer and up to 0.2 μmol/mg acid content (expressed as the number of protons titrated in a solution prepared by dissolving 1 mg of diblock copolymer in water), after heating, only 95% of the paclitaxel initially added to the mixture could be recovered, as quantified using a reverse phase HPLC assay with UV detection and a taxane optimized C18 column.

[2] = Solubility of paclitaxel in organic solvents

paclitaxel initially added that could be recovered after heating ([1]; combined with diblock copolymer having up to 2% residual monomer and up to 0.2 μmol/mg acid content): 95%
paclitaxel recovered after heating ([1]; combined with methoxypolyethylene glycol having no measured acidic components and no DL-lactide monomer): 99%
paclitaxel that could be recovered after heating ([1]; diblock copolymer with greatly reduced quantities of residual monomer and acidic components): 98%
amount of paclitaxel that may be dissolved in NMP ([2]; in 1 mL of NMP): 535 mg
amount of paclitaxel that may be dissolved in ethanol ([2]; in ethanol (volume not given)): 26 mg
Structure (SMILES): CC(=O)O[C@H]1C(=O)[C@@]2(C)[C@H]([C@H](OC(=O)c3ccccc3)[C@]3(O)C[C@H](OC(=O)[C@H](O)[C@@H](NC(=O)c4ccccc4)c4ccccc4)C(C)=C1C3(C)C)[C@]1(OC(C)=O)CO[C@@H]1C[C@@H]2O [paclitaxel]
